First: CC(C)c1cc(C(C)C)c(NC(=O)CN2CCN(CCCSc3nc4ccccc4s3)CC2)c(C(C)C)c1
Second: CCN1C(=O)CC(C)(C)c2ccc(-c3nc4ccccc4[nH]3)cc21
The melting point of the first is lower: 107 to 108 °C for the first, 257 to 259 °C for the second.

First: COc1ccc(N2CCN(c3c(C)c(C)c4c(c3C)C(O)(c3ccc(Cl)cc3)C(C)(C)O4)CC2)cc1 (stereo not drawn)
Second: CON(C)C(=O)CCc1oc(-n2ccnc2C)nc1-c1ccc(Cl)cc1
The melting point of the first is higher: 153 to 155 °C for the first, 116 to 117 °C for the second.

First: Cc1c(Br)cccc1NS(=O)(=O)c1cc(S(=O)(=O)Nc2cccc(Br)c2C)c2ccccc2c1O
Second: CC(C)(C)OC(=O)NCc1cccc(OCCC2Oc3ccccc3N(Cc3cccc(Cl)c3)C2=O)c1 (stereo not drawn)
The melting point of the first is higher: 246 to 248 °C for the first, 98 to 100 °C for the second.

First: CCS(=O)(=O)CCC(=O)NNC(=O)N1Cc2ccccc2Oc2c(Cl)cccc21
Second: O=C(N1Cc2cncnc2-c2ccc(Cl)cc2C1c1ccccc1Cl)C(F)(F)F (stereo not drawn)
The melting point of the first is higher: 209 to 211 °C for the first, 178 to 179 °C for the second.

First: CCc1cc(C)nc2c(C)ccc(N)c12
Second: CCC1=C(C)CN(C(=O)NC2COc3cc(OC)ccc3C2)C1=O (stereo not drawn)
The melting point of the first is lower: 60 to 62 °C for the first, 118 to 119 °C for the second.

Compared with `COC(C(=O)O)c1ccsc1` (stereo not drawn), `NC(=O)N(O)Cc1ccc(Br)s1` is higher in melting point: 80 to 82 °C for the first, 145 to 147 °C for the second.

First: CC(=O)Nc1nc(Cl)c2ncn([C@@H]3C[C@H](OC(C)=O)[C@@H](O)[C@H]3O)c2n1 (racemic)
Second: C=C(C)COc1cc(C)c(NC(C)=O)c(C)c1C
The melting point of the first is higher: 198 °C for the first, 149 to 150 °C for the second.

First: CCCCC(=O)N(Cc1ccc(-c2ccccc2-c2nnn[nH]2)cc1)C(C(=O)O)c1ccccc1 (stereo not drawn)
Second: COc1cccc(OC)c1S(=O)(=O)OCC(=NNc1ccccc1)c1ccccc1
The melting point of the first is lower: 145 to 148 °C for the first, 168 °C for the second.

Compared with `COc1ccc(C(=O)C2(C)CCC(C(=O)O)C2(C)C)c(OC)c1` (stereo not drawn), `COc1cc2c(cc1OC)N(C(N)=O)C(=O)C2` is higher in melting point: 134 °C for the first, 206 to 209 °C for the second.

First: Cc1cc([N+](=O)[O-])ccc1OC12CC3CC(CC(C3)C1)C2
Second: O=[N+]([O-])c1ccc2[nH]cc(C3=CCN(CC4CC4)CC3)c2c1
The melting point of the first is lower: 89.5 to 91 °C for the first, 187 to 188 °C for the second.

First: COC(=O)c1cc(C(=O)NNC(=O)c2ccco2)c2cc(Cc3ccc(F)cc3)cnc2c1O
Second: Nc1c(C(=O)c2cc(-c3ccccc3)no2)[nH]c2cc(Cl)ccc12
The melting point of the first is lower: 207 to 210 °C for the first, 241 to 242 °C for the second.

First: CCN1C(=O)C(C)(C)C(=O)N(C)c2cc(CCN(CCn3cc(C)c4occc4c3=O)Cc3cnccc3C)ccc21
Second: CCOc1ccc(-c2ccc3c(c2)C=C(C(=O)Nc2ccc(CN(C)C4CCOCC4)cc2)CCN3C=O)cc1
The melting point of the first is lower: 165 to 166 °C for the first, 211 to 215 °C for the second.

Compared with `CS(=O)(=O)Nc1ccc(OCCN2CCC(C(=O)c3ccc(NS(C)(=O)=O)cc3)CC2)cc1`, `CCOC(=O)c1ccc(NCCOc2ccc3ccccc3c2)cc1` is lower in melting point: 168 to 172 °C for the first, 158 to 162 °C for the second.

First: CC(=O)C(C(=O)N(CCN(C)C)c1ccccc1)=C(N)c1ccccc1
Second: O=C(O)CC1c2ccccc2C(=O)N1c1ccccc1 (stereo not drawn)
The melting point of the first is lower: 81 to 83 °C for the first, 204 to 205 °C for the second.

`CNC(=O)Oc1ccc(S(C)(=O)=O)c2c1CCCC2` and `CC(=O)c1ccc(-c2ccc(S(C)(=O)=O)cc2)o1` cannot be ordered by melting point: 162 to 164 °C for the first, 160 to 164 °C for the second.

Compared with `CC(C)(C)c1cc(CC2SC(=S)NC2=O)cc(C(C)(C)C)c1O` (stereo not drawn), `COc1cc(C2C3=C(COC3=O)Nc3ccc4cn[nH]c4c32)ccc1O` (stereo not drawn) is higher in melting point: 178 to 179 °C for the first, 238 to 240 °C for the second.

Compared with `Nc1cc(C(Cl)(Cl)Cl)ccn1`, `C=CCN1CCn2c1nc1ccc(Cl)cc1c2=O` is lower in melting point: 114 °C for the first, 91 to 93 °C for the second.

Compared with `CCN1CCN(c2c(F)c(N)c3c(=O)c(C(=O)O)cn(C4CC4)c3c2F)CCC1=O`, `CC1(C)CC(O)(C(F)(F)F)C(Nc2cccc3[nH]ncc23)c2ccc(Cl)c(O)c21` (stereo not drawn) is lower in melting point: 276 to 278 °C for the first, 112 to 120 °C for the second.

Compared with `Cc1cc2c([nH]1)CC(c1ccccc1)CC2=O` (stereo not drawn), `O=C(Nc1ccccc1)c1ccc(F)c(Nc2ccccc2)c1` is lower in melting point: 203 to 205 °C for the first, 132 to 133 °C for the second.
